Test results reported in US11491134B2, “Composition for inhibiting skin cell proliferation and/or anti-inflammation method for inhibiting skin cell proliferation and/or anti-inflammation and method for treating skin diseases and/or inflammatory diseases” (Industrial Technology Research Institute, priority 2019, dated 2022).

Tested on: keratinocytes, HaCaT cells
Assay: Inhibition rate on keratinocyte (HaCaT cell) proliferation, MTT
Assay type: cell-based
Conditions: Homo sapiens
Protocol: Dimethyl sulfoxide (DMSO) was used as a solvent to prepare apigenin test samples with different concentrations and luteolin test samples with different concentrations. 9 batches of experiments were performed, which respectively were Batch 1 to Batch 9. There were 6 independent experiments in each batch of experiments. In each independent experiment, inhibition rate of an apigenin test sample with a specific concentration on keratinocyte proliferation and inhibition rate of a luteolin test sample with a specific concentration on keratinocyte proliferation were determined, and inhibition rate of a combination of an apigenin test sample with the said specific concentration and a luteolin test sample with the said specific concentration on keratinocyte proliferation was determined. Between the independent experiments, concentrations of apigenin test samples used were different, and concentrations of luteolin test samples used were also different, however, mole ratios or weight ratios of apigenin test samples to luteolin test samples were the same. Moreover, between the batches of experiments, mole ratios or weight ratios of apigenin test samples to luteolin test samples were different. 5×10^3 keratinocytes, HaCaT cells, were inoculated in a 96-well culture plate and then placed in a 37° C. and 5% CO2 incubator for culturing overnight, and cell numbers at this time point (T0) was used as a benchmark for cell proliferation. After overnight culture, a test sample was added to the cells in the culture plate (refer to Table 1, and the cells of the control group were only treated with dimethyl sulfoxide) for co-culturing for 48 hours (T48). After that, the supernatant in the culture plate was removed. After the supernatant was removed, 50 μL MTT solution (0.5 mg/mL; Life Technologies Cat. No. M-6494) was added to cells and then the culture plate was placed in a 37° C. and 5% CO2 incubator for culturing for 1.5 hours. After that, 150 μL DMSO (J. T. Baker, Cat. No. 9224-03) was added to the cells in the culture plate and shaken for 5 minutes. Thereafter, the absorbance of each well of the culture plate was determined at 570 nm by a continuous wavelength microplate reader, and inhibition rate on cell proliferation was calculated through the following formula: Inhibition rate on cell proliferation=T48 Control group570 nm−T48 Experimental group570 nm)/(T48 Control group570 nm−T0 Control group570 nm) In this experiment, the synergistic effects of apigenin and luteolin were evaluated by CalcuSyn software (BIOSOFT). CalcuSyn software is an analysis software which is commonly used to analyze the drug dosage effect of single drug and multiple drugs at present. CalcuSyn software can be used to analyze drug complex interactions and automatically quantify various phenomena such as synergism and inhibition. CalcuSyn software can process the data of individual drugs and combination drugs with constant-ratio or on-constant-ratio, and can evaluate the interaction of combination drugs by the combination index (CI) (Chou and Talalay, Adv. Enzyme Regul. 22:27-55 (1984) calculated by CalcuSyn software. Calculation formula for the combination index is shown in the following: Combination index=C1/IC1+C2/IC2 C1 and C2 are the respective concentrations of the first compound and the second compound at which the activity of achieving a specific physiological or medical purpose is 50% (or 75%, or 90%) when the first compound and the second compound are analyzed in combination; IC1 and IC2 are the respective concentrations at which the activity of achieving a specific physiological or medical purpose of the first compound and the second compound is 50% (or 75%, or 90%) when the first compound and the second compound are independently analyzed. […]

O=c1cc(-c2ccc(O)cc2)oc2cc(O)cc(O)c12 [Apigenin, apigenin]
inhibition at 3.125 µM (Batch 1, apigenin 3.125 μM/0.84 μg/mL): 0%
inhibition at 6.25 µM (Batch 1, apigenin 6.25 μM/1.69 μg/mL): 0%
inhibition at 12.5 µM (Batch 1, apigenin 12.5 μM/3.38 μg/mL): 12.2%
inhibition at 25 µM (Batch 1, apigenin 25 μM/6.76 μg/mL): 29.2%
inhibition at 50 µM (Batch 1, apigenin 50 μM/13.51 μg/mL): 72.2%
inhibition at 100 µM (Batch 1, apigenin 100 μM/27.02 μg/mL): 103%
inhibition at 3.125 µM (Batch 2, apigenin 3.125 μM/0.84 μg/mL): 3.7%
inhibition at 6.25 µM (Batch 2, apigenin 6.25 μM/1.69 μg/mL): 5.8%
inhibition at 12.5 µM (Batch 2, apigenin 12.5 μM/3.38 μg/mL): 15.7%
inhibition at 25 µM (Batch 2, apigenin 25 μM/6.76 μg/mL): 40.7%
inhibition at 50 µM (Batch 2, apigenin 50 μM/13.51 μg/mL): 75.6%
inhibition at 100 µM (Batch 2, apigenin 100 μM/27.02 μg/mL): 105%
inhibition at 3.125 µM (Batch 3, apigenin 3.125 μM/0.84 μg/mL): 0%
inhibition at 6.25 µM (Batch 3, apigenin 6.25 μM/1.69 μg/mL): 5%
inhibition at 12.5 µM (Batch 3, apigenin 12.5 μM/3.38 μg/mL): 17.2%
inhibition at 25 µM (Batch 3, apigenin 25 μM/6.76 μg/mL): 39.7%
inhibition at 50 µM (Batch 3, apigenin 50 μM/13.51 μg/mL): 75.3%
inhibition at 100 µM (Batch 3, apigenin 100 μM/27.02 μg/mL): 103%
inhibition at 3.125 µM (Batch 4, apigenin 3.125 μM/0.84 μg/mL): 0%
inhibition at 6.25 µM (Batch 4, apigenin 6.25 μM/1.69 μg/mL): 0%
inhibition at 12.5 µM (Batch 4, apigenin 12.5 μM/3.38 μg/mL): 8.9%
inhibition at 25 µM (Batch 4, apigenin 25 μM/6.76 μg/mL): 31.9%
inhibition at 50 µM (Batch 4, apigenin 50 μM/13.51 μg/mL): 71.9%
inhibition at 100 µM (Batch 4, apigenin 100 μM/27.02 μg/mL): 103%
inhibition at 3.125 µM (Batch 5, apigenin 3.125 μM/0.84 μg/mL): 2.3%
inhibition at 6.25 µM (Batch 5, apigenin 6.25 μM/1.69 μg/mL): 11.1%
inhibition at 12.5 µM (Batch 5, apigenin 12.5 μM/3.38 μg/mL): 18.3%
inhibition at 25 µM (Batch 5, apigenin 25 μM/6.76 μg/mL): 36.2%
inhibition at 50 µM (Batch 5, apigenin 50 μM/13.51 μg/mL): 77.1%
inhibition at 100 µM (Batch 5, apigenin 100 μM/27.02 μg/mL): 110%
inhibition at 1.5625 µM (Batch 6, apigenin 1.5625 μM/0.42 μg/mL): 0%
inhibition at 3.125 µM (Batch 6, apigenin 3.125 μM/0.84 μg/mL): 0%
inhibition at 6.25 µM (Batch 6, apigenin 6.25 μM/1.69 μg/mL): 0%
inhibition at 12.5 µM (Batch 6, apigenin 12.5 μM/3.38 μg/mL): 1.3%
inhibition at 25 µM (Batch 6, apigenin 25 μM/6.76 μg/mL): 48.7%
inhibition at 50 µM (Batch 6, apigenin 50 μM/13.51 μg/mL): 72%
inhibition at 0.625 µM (Batch 7, apigenin 0.625 μM/0.17 μg/mL): 8%
inhibition at 1.25 µM (Batch 7, apigenin 1.25 μM/0.34 μg/mL): 8.3%
inhibition at 2.5 µM (Batch 7, apigenin 2.5 μM/0.68 μg/mL): 12.8%
inhibition at 5 µM (Batch 7, apigenin 5 μM/1.35 μg/mL): 8.7%
inhibition at 10 µM (Batch 7, apigenin 10 μM/2.70 μg/mL): 24.7%
inhibition at 20 µM (Batch 7, apigenin 20 μM/5.40 μg/mL): 40.4%
inhibition at 0.3125 µM (Batch 8, apigenin 0.3125 μM/0.08 μg/mL): 4.3%
inhibition at 0.625 µM (Batch 8, apigenin 0.625 μM/0.17 μg/mL): 9%
inhibition at 1.25 µM (Batch 8, apigenin 1.25 μM/0.34 μg/mL): 10.1%
inhibition at 2.5 µM (Batch 8, apigenin 2.5 μM/0.68 μg/mL): 8.9%
inhibition at 5 µM (Batch 8, apigenin 5 μM/1.35 μg/mL): 10.4%
inhibition at 10 µM (Batch 8, apigenin 10 μM/2.70 μg/mL): 18.3%
inhibition at 0.15625 µM (Batch 9, apigenin 0.15625 μM/0.04 μg/mL): 1.4%
inhibition at 0.3125 µM (Batch 9, apigenin 0.3125 μM/0.08 μg/mL): 3.9%
inhibition at 0.625 µM (Batch 9, apigenin 0.625 μM/0.17 μg/mL): 2.1%
inhibition at 1.25 µM (Batch 9, apigenin 1.25 μM/0.34 μg/mL): 4.6%
inhibition at 2.5 µM (Batch 9, apigenin 2.5 μM/0.68 μg/mL): 3.2%
inhibition at 5 µM (Batch 9, apigenin 5 μM/1.35 μg/mL): 3.2%
